Test results from patent US20120238604A1, “CYTOTOXIC COMPOUNDS” (Molecular Discovery Systems, priority 2009, published 2012).

What was measured:
[1] = test system: HeLa cells expressing H2B-GFP; assay: Perturbation of mitotic spindle organisation and assembly, anti-β-tubulin staining; assay type: cell-based, human; conditions: 20 μM, overnight
Description: HeLa cells stably expressing a green fluorescent marker of nuclear DNA (H2B-GFP) were exposed overnight to carrier (DMSO) or 20 μM compounds A1 and B3. The cells were then fixed with methanol, stained with mouse monoclonal anti-β-tubulin antibody and Alexafluor 546 nm goat anti-mouse antibody, and fluorescent signal visualised by microscopy. The open circle indicates a cell with a perturbed mitotic spindle while the arrow indicates a cell with a mostly disassembled mitotic spindle.
These cells were exposed overnight to carrier (0.1% (v/v) DMSO) or an equivalent volume of DMSO containing compounds A1 and B3 (final concentration in the culture medium was 20 μM). The cells were then briefly rinsed with phosphate-buffered saline (PBS) prior to fixation with 100% methanol at −20° C. The fixed cells were then stained with mouse monoclonal anti-β-tubulin antibody and Alexafluor 546 nm goat anti-mouse antibody (diluted 400× from commercial stocks into PBS containing 10 mg/ml bovine serum albumin (BSA)). The GFP and 546 nm fluorescence signals were then visualised using a microscope equipped for digital confocal epifluorescence imaging. The open circle in FIG. 1 represents a cell with a perturbed mitotic spindle while the arrow points to a cell with a mostly unassembled mitotic spindle.

[2] = test system: HeLa cells expressing H2B-GFP; assay: Induction of apoptosis, Annexin V binding; assay type: cell-based, human; conditions: overnight; 20 μM compound A1 or 100 nM paclitaxel
Description: HeLa cells were exposed overnight to 20 μM compound A1 or 100 nM paclitaxel, stained with a fluorescent Annexin V marker of apoptosis and visualised by epifluorescence microscopy following fixation.
FIG. 3 The H2B-GFP-expressing HeLa cells were treated overnight with 20 μM compound A1 or 100 nM paclitaxel. The cells were then exposed to Annexin-V tagged with Alexafluor 546 nm and visualized using an epifluorescence microscope equipped for digital imaging following fixation with 4% para-formaldehyde.

[3] = test system: HeLa cells expressing H2B-GFP; assay: Inhibition of cell proliferation (GI50) by nuclear counts, IN Cell Analyser; assay type: cell-based, human; conditions: HeLa
Description: Table 3 HeLa cells expressing H2B-GFP were plated in 96-well plates and exposed to concentrations ranging from 100 μM to […] of the indicated compounds C1-C78. The number of cells was then determined every 24 hours by imaging of the plates using an IN Cell Analyser (GE Healthcare), followed by measurement of the number of intact cell nuclei using Developer™ software (GE Healthcare). Drug concentrations that cause 50% inhibition of cell proliferation (GI50) were determined from the nuclear counts using GraphPad Prism software or ED50v10 freeware.

[4] = test system: HeLa cells expressing H2B-GFP; assay: Induction of mitotic arrest (EC50), mitotic index by phospho-histone 3 staining; assay type: cell-based; conditions: Homo sapiens, concentration for 50% induction of mitotic arrest, overnight, values in nM, read-out: EC50 (mitosis) (HeLa)
Description: Parallel plates were treated overnight with the compounds to visualize the mitotic cells by staining with anti-phospho-histone 3 and Alexafluor 546 nm secondary antibodies after fixation with 4% paraformaldehyde. Following imaging of the nuclear GFP and phospho-histone 3 signals using an IN Cell Analyser (GE Healthcare), determination of the mitotic index by analysis of the images with Developer™ software (GE Healthcare) permitted estimation of the concentration that leads to 50% induction of the mitotic arrest (EC50). It can be seen that inhibition of cell proliferation and mitosis correlate well for the compounds tested.

[5] = test system: purified porcine brain tubulin; assay: In vitro microtubule assembly, light scattering at 350 nm; assay type: biochemical; conditions: 3 and 6 μM, 37° C.
Description: In vitro polymerisation of purified porcine brain tubulin at 37° C. in the presence of compound C9 (3 and 6 μM), 15 μM nocodazole, 2 μM vinblastine or an equal volume of carrier DMSO was measured over time as light scattering at 350 nm.

[6] = test system: Vascular endothelium MS-1 cells; assay: Disruption of the microtubule cytoskeleton of vascular endothelium cells; assay type: cell-based; conditions: 100 nM, 120 minutes
Excerpt: After staining with Hoescht, TRITC-phalloidin, anti-beta tubulin antibody and Alexafluor 488 nm secondary antibody, the cells were imaged at 400× magnification by epifluorescence microscopy.

[7] = test system: Vascular endothelium MS-1 cells; assay: Disruption of vascular endothelium cell adhesion (cell capillaries on Matrigel); assay type: cell-based; conditions: 300 nM, 60 minutes
Description: Following the addition of 300 nM compound C9 or an equivalent volume of DMSO carrier for 60 minutes, the extracellular matric plugs were imaged at 40× magnification by phase contrast microscopy.

[8] = test system: HeLa cells expressing H2B-GFP; assay: Induction of mitotic arrest, phase-contrast microscopy; assay type: cell-based, human; conditions: overnight; 20 μM compound B3 or 100 nM paclitaxel
Description: (A) HeLa cells were exposed overnight to carrier (DMSO), 20 μM compound B3 or 100 nM paclitaxel, and visualized by phase-contrast microscopy.
FIG. 2 (A) The H2B-GFP-expressing HeLa cells (grown under identical culture conditions as described in Example 1) were exposed overnight to carrier (0.1% (v/v) DMSO), 20 μM compound B3 or 100 nM paclitaxel in DMSO. The cells were then visualized using a phase-contrast microscope equipped for digital imaging.

[9] = test system: HeLa cells expressing H2B-GFP; assay: Induction of mitotic arrest, phospho-histone 3 marker of mitosis; assay type: cell-based, human; conditions: 4 hours; 20 μM compound or 100 nM paclitaxel
Description: (B) HeLa cells exposed for 4 hours to carrier (DMSO), 20 μM compound A1 or 100 nM paclitaxel were fixed and stained with anti-phospho-histone 3 marker of mitosis followed by fluorescent secondary antibody. The percentage of cells positive for phospho-histone 3 was determined by digital imaging and analysis of the fluorescence signals (B).
FIG. 2 (B) The H2B-GFP-expressing HeLa cells were treated for 4 hours with carrier (0.1% (v/v) DMSO), 20 μM compound A1 or 100 nM paclitaxel in DMSO. The cells were then briefly rinsed with phosphate-buffered saline (PBS) prior to fixation with 4% para-formaldehyde at ambient temperature. The fixed cells were then stained with mouse monoclonal anti-phospho-histone 3 antibody and Alexafluor 546 nm goat anti-mouse antibody (diluted 400× from commercial stocks into PBS containing 10 mg/ml bovine serum albumin (BSA)). The GFP and 546 nm fluorescence signals were then captured with an IN Cell Analyser 1000 (GE Healthcare) and the percentage of cells stained with the anti-phospho-histone 3 antibody determined using Developer™ software (GE Healthcare).

[10] = test system: HeLa cells expressing H2B-GFP; assay: Dose-dependent inhibition of cell proliferation, cell counts over 0-96 h; assay type: cell-based, human; conditions: 0.2-20 μM
Description: FIG. 4. Dose-dependent inhibition of cell proliferation by compound B3. The proliferation of HeLa cells at decreasing concentrations (from 20 to 0.2 μM) of polokinase inhibitor (PKi), KSP inhibitor (STLC) and compound B3 was determined (relative to paclitaxel at 400 to 10 nM) by counting of the cells over time (0-96 h).
FIG. 4 HeLa cells expressing H2B-GFP were plated in multi-well plates and exposed to 0.2-20 μM of polokinase inhibitor (PKi), KSP inhibitor (STLC) and compound B3, or 10-400 nM of paclitaxel. The number of cells at 0, 24, 48, 72 and 96 h of treatment was determined by imaging of the GFP signal in the plates with an IN Cell Analyser (GE Healthcare) followed by measurement of the number of intact cell nuclei using Developer™ software (GE Healthcare).

| SMILES | Effect on mitotic spindle organisation and assembly [1] | Induction of apoptotic cells (Annexin-V binding) [2] | Accumulation of cells with mitotic phenotype [8] | Accumulation of cells stained with phospho-histone 3 marker of mitosis [9] | further results |
| --- | --- | --- | --- | --- | --- |
| Fc1ccc(NC(=S)N/N=C/c2ccccc2)cc1 [A1, BENZALDEHYDE N-(4-FLUOROPHENYL)THIOSEMICARBAZONE] | substantial alterations in the spatial organisation of mitotic spindle fibres and chromosomes | induction of apoptotic cells |  |  |  |
| COc1ccccc1/C=N/NC(=S)Nc1ccccc1C(F)(F)F [C9] |  |  |  |  | Anti-proliferative activity (effect of substitution, in words) ([3]; text comment on Table 3): greatly increase the anti-proliferative activity; GI50 ([3]; Homo sapiens, concentration causing 50% inhibition of cell proliferation, nuclear counts every 24 hours): 10 nM; EC50 [4]: 10 nM; Inhibition of in vitro microtubule assembly [5]: Dose-dependent inhibition of in vitro microtubule assembly; Disruption of the microtubule cytoskeleton [6]: Disruption of the microtubule cytoskeleton of vascular endothelium cells; Disruption of vascular endothelium cell adhesion [7]: Disruption of vascular endothelium cell adhesion |
| COc1ccccc1/C=N/NC(=S)Nc1cccc(C)c1 [B3, 2-METHOXYBENZALDEHYDE N-(3-METHYLPHENYL)THIOSEMICARBAZONE] | profoundly perturbs spindle function by blocking the assembly of spindle microtubule fibres |  | pronounced accumulation of round and translucent cells representing the mitotic phenotype | accumulation of cells that are stained with the phospho-histone 3 marker of mitosis | Concentration potently blocking cell proliferation [10]: > 1 µM |
| CC(=O)O[C@H]1C(=O)[C@@]2(C)[C@H]([C@H](OC(=O)c3ccccc3)[C@]3(O)C[C@H](OC(=O)[C@H](O)[C@@H](NC(=O)c4ccccc4)c4ccccc4)C(C)=C1C3(C)C)[C@]1(OC(C)=O)CO[C@@H]1C[C@@H]2O [paclitaxel, reference compound] |  | induction of apoptotic cells | pronounced accumulation of round and translucent cells representing the mitotic phenotype | accumulation of cells that are stained with the phospho-histone 3 marker of mitosis |  |
